Results published in patent US6896895B2, “Carotenoid esters, carotenoid-enriched feeds, and methods of pigmenting foods and foodstuffs” (DSM IP Assets B.V., priority 2000, dated 2005).

Tests used:
egg yolk = experiment: Egg yolk colour: reflectance colorimetry and Roche Yolk Colour Fan; assay type: in vivo, laying hens (ISA Brown); set-up: key to Chroma C*ab Value: CIE L*a*b* chroma C* value; key to Color Fan Value / Color Fan Value Value: visual score on Roche Yolk Colour Fan (RYCF, 1993 version); key to Color Fan Value, Pigmentation: − = off color; + = good color; details: laying hens; for Color Fan Value % of Controls / Chroma C*ab % of Controls / Color Hue h*ab % of Controls / Chroma C*ab Value / Color Fan Value / Color Fan Value, Pigmentation / Color Hue h*ab Value / Color Fan Value Value: egg yolk; for quality in terms of deposition rate and color intensity (chroma C*a*b*) in the egg yolk: compared to the control
Method in brief: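 ISA Brown laying hens, depleted at least 28 days on low-carotenoid basal diet (<2 mg xanthophylls/kg), fed pigment-supplemented mash ad libitum for three weeks. Pooled yolks of three to six eggs scored with Roche Yolk Colour Fan and measured by reflectance colorimetry (D65, 8°) as CIE L*a*b*, h*, C*; values average four yolk pools.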

[1] = Carotenoid ester content and deposition rate in egg yolk of laying hens (HPLC); assay type: in vivo, laying hens (ISA Brown); set-up: Deposition Rate Value: unit not given here; details: for Deposition Rate Target Values % of Controls / Ethyl β-apo-8′-carotenoate Equivalents % of Controls / Deposition Rate % of Controls / Deposition Rate Target Values / Ethyl β-apo-8′-carotenoate Equivalents / Deposition Rate Value: egg yolk; for Deposition Rate % of Controls / Deposition Rate Value: Table 9; for concentration in the egg yolk: versus the control
Method in brief: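 Hens were first depleted for at least 28 days on a low-carotenoid basal diet (<2 mg total xanthophylls/kg, also the control diet), then fed mash supplemented with the pigments ad libitum for three weeks. Pooled homogenised yolk was extracted with ethanol/n-hexane and analysed by HPLC, calibrated with all-E ethyl β-apo-8′-carotenoate. Response factors were adjusted by molecular weight, and Z-isomers were corrected by a factor of 1.4.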

[2] = trial H-25/99, 5.0 mg/kg feed, Table 9
[3] = trial H-12/99, 1.0 mg/kg feed, Table 9
[4] = trial H-12/99, 2.0 mg/kg feed, Table 9
[5] = trial H-12/99, 4.0 mg/kg feed, Table 9
[6] = trial H-12/99, 8.0 mg/kg feed, Table 9
[7] = trial H-19/98, 4.0 mg/kg feed, Table 9
[8] = trial H-25/98, 5.0 mg/kg feed, Table 9

Compound: CC(C=CC=C(C)C=CC1=C(C)CCCC1(C)C)=CC=CC=C(C)C=CC=C(C)C(=O)OC(C)(C)C [compound (18), tert. butyl beta-apo-8′-carotenoate]
- Color Fan Value % of Controls (egg yolk; average over doses, Table 7): 87%
- Chroma C*ab % of Controls (egg yolk; average over doses, Table 9): 101%
- Color Fan Value % of Controls (egg yolk; average over doses, Table 9): 87%
- Color Hue h*ab % of Controls (egg yolk; average over doses, Table 9): 85%
- Chroma C*ab % of Controls (egg yolk; trial H-25/99, 5.0 mg/kg feed): 101%
- Chroma C*ab Value (egg yolk; trial H-25/99, 5.0 mg/kg feed): 52
- Color Fan Value (egg yolk; trial H-25/99, 5.0 mg/kg feed): 7
- Color Fan Value % of Controls (egg yolk; trial H-25/99, 5.0 mg/kg feed): 87%
- Color Fan Value, Pigmentation (egg yolk; trial H-25/99, 5.0 mg/kg feed): +
- Color Hue h*ab % of Controls (egg yolk; trial H-25/99, 5.0 mg/kg feed): 85%
- Color Hue h*ab Value (egg yolk; trial H-25/99, 5.0 mg/kg feed): 74
- Color Fan Value % of Controls (egg yolk; [2]): 87%
- Color Fan Value Value (egg yolk; [2]): 7
- Color Fan Value, Pigmentation (egg yolk; [2]): +
- quality in terms of deposition rate and color intensity (chroma C*a*b*) in the egg yolk (egg yolk): comparable quality
- Deposition Rate Target Values % of Controls ([1]; average over doses, Table 7): 119%
- Ethyl β-apo-8′-carotenoate Equivalents % of Controls ([1]; average over doses, Table 7): 106%
- Deposition Rate % of Controls ([1]; average over doses): 119%
- Deposition Rate Target Values ([1]; trial H-25/99, 5.0 mg/kg feed): 60.7%
- Deposition Rate Target Values % of Controls ([1]; trial H-25/99, 5.0 mg/kg feed): 119%
- Ethyl β-apo-8′-carotenoate Equivalents ([1]; trial H-25/99, 5.0 mg/kg feed): 16.6 mg/kg
- Ethyl β-apo-8′-carotenoate Equivalents % of Controls ([1]; trial H-25/99, 5.0 mg/kg feed): 106%
- Deposition Rate % of Controls ([1]; trial H-25/99, 5.0 mg/kg feed): 119%
- Deposition Rate Value ([1]; trial H-25/99, 5.0 mg/kg feed): 61
- concentration in the egg yolk [1]: in the range of the control

Compound: CC1=C(/C=C/C(C)=C/C=C/C(C)=C/C=C/C=C(C)/C=C/C=C(\C)C(=O)OC(C)C)C(C)(C)CCC1 [compound (17), isopropyl beta-apo-8′-carotenoate]
- Color Fan Value % of Controls (egg yolk; average over doses, Table 7): 105%
- Chroma C*ab % of Controls (egg yolk; average over doses, Table 9): 98%
- Color Fan Value % of Controls (egg yolk; average over doses, Table 9): 105%
- Color Hue h*ab % of Controls (egg yolk; average over doses, Table 9): 101%
- Chroma C*ab % of Controls (egg yolk; trial H-12/99, 1.0 mg/kg feed): 98%
- Chroma C*ab Value (egg yolk; trial H-12/99, 1.0 mg/kg feed): 39
- Color Fan Value (egg yolk; trial H-12/99, 1.0 mg/kg feed): 3
- Color Fan Value % of Controls (egg yolk; trial H-12/99, 1.0 mg/kg feed): 66%
- Color Hue h*ab % of Controls (egg yolk; trial H-12/99, 1.0 mg/kg feed): 101%
- Color Hue h*ab Value (egg yolk; trial H-12/99, 1.0 mg/kg feed): 95
- Color Fan Value % of Controls (egg yolk; [3]): 66%
- Color Fan Value Value (egg yolk; [3]): 3
- Chroma C*ab % of Controls (egg yolk; trial H-12/99, 2.0 mg/kg feed): 100%
- Chroma C*ab Value (egg yolk; trial H-12/99, 2.0 mg/kg feed): 45
- Color Fan Value (egg yolk; trial H-12/99, 2.0 mg/kg feed): 6
- Color Fan Value % of Controls (egg yolk; trial H-12/99, 2.0 mg/kg feed): 104%
- Color Fan Value, Pigmentation (egg yolk; trial H-12/99, 2.0 mg/kg feed): +
- Color Hue h*ab % of Controls (egg yolk; trial H-12/99, 2.0 mg/kg feed): 101%
- Color Hue h*ab Value (egg yolk; trial H-12/99, 2.0 mg/kg feed): 93
- Color Fan Value % of Controls (egg yolk; [4]): 104%
- Color Fan Value Value (egg yolk; [4]): 6
- Color Fan Value, Pigmentation (egg yolk; [4]): +
- Chroma C*ab % of Controls (egg yolk; trial H-12/99, 4.0 mg/kg feed): 98%
- Chroma C*ab Value (egg yolk; trial H-12/99, 4.0 mg/kg feed): 51
- Color Fan Value (egg yolk; trial H-12/99, 4.0 mg/kg feed): 6
- Color Fan Value % of Controls (egg yolk; trial H-12/99, 4.0 mg/kg feed): 97%
- Color Fan Value, Pigmentation (egg yolk; trial H-12/99, 4.0 mg/kg feed): +
- Color Hue h*ab % of Controls (egg yolk; trial H-12/99, 4.0 mg/kg feed): 102%
- Color Hue h*ab Value (egg yolk; trial H-12/99, 4.0 mg/kg feed): 90
- Color Fan Value % of Controls (egg yolk; [5]): 97%
- Color Fan Value Value (egg yolk; [5]): 6
- Color Fan Value, Pigmentation (egg yolk; [5]): +
- Chroma C*ab % of Controls (egg yolk; trial H-12/99, 8.0 mg/kg feed): 96%
- Chroma C*ab Value (egg yolk; trial H-12/99, 8.0 mg/kg feed): 54
- Color Fan Value (egg yolk; trial H-12/99, 8.0 mg/kg feed): 9
- Color Fan Value % of Controls (egg yolk; trial H-12/99, 8.0 mg/kg feed): 156%
- Color Fan Value, Pigmentation (egg yolk; trial H-12/99, 8.0 mg/kg feed): +
- Color Hue h*ab % of Controls (egg yolk; trial H-12/99, 8.0 mg/kg feed): 100%
- Color Hue h*ab Value (egg yolk; trial H-12/99, 8.0 mg/kg feed): 85
- Color Fan Value % of Controls (egg yolk; [6]): 156%
- Color Fan Value Value (egg yolk; [6]): 9
- Color Fan Value, Pigmentation (egg yolk; [6]): +
- Chroma C*ab % of Controls (egg yolk; trial H-19/98, 4.0 mg/kg feed): 97%
- Chroma C*ab Value (egg yolk; trial H-19/98, 4.0 mg/kg feed): 51
- Color Fan Value (egg yolk; trial H-19/98, 4.0 mg/kg feed): 5
- Color Fan Value % of Controls (egg yolk; trial H-19/98, 4.0 mg/kg feed): 79%
- Color Fan Value, Pigmentation (egg yolk; trial H-19/98, 4.0 mg/kg feed): +
- Color Hue h*ab % of Controls (egg yolk; trial H-19/98, 4.0 mg/kg feed): 106%
- Color Hue h*ab Value (egg yolk; trial H-19/98, 4.0 mg/kg feed): 89
- Color Fan Value % of Controls (egg yolk; [7]): 79%
- Color Fan Value Value (egg yolk; [7]): 5
- Color Fan Value, Pigmentation (egg yolk; [7]): +
- Chroma C*ab % of Controls (egg yolk; trial H-25/98, 5.0 mg/kg feed): 99%
- Chroma C*ab Value (egg yolk; trial H-25/98, 5.0 mg/kg feed): 52
- Color Hue h*ab % of Controls (egg yolk; trial H-25/98, 5.0 mg/kg feed): 98%
- Color Hue h*ab Value (egg yolk; trial H-25/98, 5.0 mg/kg feed): 86
- Color Fan Value % of Controls (egg yolk; [8]): 130%
- Color Fan Value Value (egg yolk; [8]): 9
- Color Fan Value (egg yolk; trial H-25/99, 5.0 mg/kg feed): 9
- Color Fan Value % of Controls (egg yolk; trial H-25/99, 5.0 mg/kg feed): 130%
- quality in terms of deposition rate and color intensity (chroma C*a*b*) in the egg yolk (egg yolk): comparable quality
- Deposition Rate Target Values % of Controls ([1]; average over doses, Table 7): 101%
- Ethyl β-apo-8′-carotenoate Equivalents % of Controls ([1]; average over doses, Table 7): 91%
- Deposition Rate % of Controls ([1]; average over doses): 101%
- Deposition Rate Target Values ([1]; trial H-12/99, 1.0 mg/kg feed): 44%
- Deposition Rate Target Values % of Controls ([1]; trial H-12/99, 1.0 mg/kg feed): 97%
- Ethyl β-apo-8′-carotenoate Equivalents ([1]; trial H-12/99, 1.0 mg/kg feed): 2.6 mg/kg
- Ethyl β-apo-8′-carotenoate Equivalents % of Controls ([1]; trial H-12/99, 1.0 mg/kg feed): 97%
- Deposition Rate % of Controls ([1]; trial H-12/99, 1.0 mg/kg feed): 97%
- Deposition Rate Value ([1]; trial H-12/99, 1.0 mg/kg feed): 44
- Deposition Rate Target Values ([1]; trial H-12/99, 2.0 mg/kg feed): 44%
- Deposition Rate Target Values % of Controls ([1]; trial H-12/99, 2.0 mg/kg feed): 100%
- Ethyl β-apo-8′-carotenoate Equivalents ([1]; trial H-12/99, 2.0 mg/kg feed): 5.2 mg/kg
- Ethyl β-apo-8′-carotenoate Equivalents % of Controls ([1]; trial H-12/99, 2.0 mg/kg feed): 94%
- Deposition Rate % of Controls ([1]; trial H-12/99, 2.0 mg/kg feed): 100%
- Deposition Rate Value ([1]; trial H-12/99, 2.0 mg/kg feed): 44
- Deposition Rate Target Values ([1]; trial H-12/99, 4.0 mg/kg feed): 42%
- Deposition Rate Target Values % of Controls ([1]; trial H-12/99, 4.0 mg/kg feed): 85%
- Ethyl β-apo-8′-carotenoate Equivalents ([1]; trial H-12/99, 4.0 mg/kg feed): 9.6 mg/kg
- Ethyl β-apo-8′-carotenoate Equivalents % of Controls ([1]; trial H-12/99, 4.0 mg/kg feed): 81%
- Deposition Rate % of Controls ([1]; trial H-12/99, 4.0 mg/kg feed): 85%
- Deposition Rate Value ([1]; trial H-12/99, 4.0 mg/kg feed): 42
- Deposition Rate Target Values ([1]; trial H-12/99, 8.0 mg/kg feed): 49%
- Deposition Rate Target Values % of Controls ([1]; trial H-12/99, 8.0 mg/kg feed): 104%
- Ethyl β-apo-8′-carotenoate Equivalents ([1]; trial H-12/99, 8.0 mg/kg feed): 23.1 mg/kg
- Ethyl β-apo-8′-carotenoate Equivalents % of Controls ([1]; trial H-12/99, 8.0 mg/kg feed): 96%
- Deposition Rate % of Controls ([1]; trial H-12/99, 8.0 mg/kg feed): 104%
- Deposition Rate Value ([1]; trial H-12/99, 8.0 mg/kg feed): 49
- Deposition Rate Target Values ([1]; trial H-19/98, 4.0 mg/kg feed): 54%
- Deposition Rate Target Values % of Controls ([1]; trial H-19/98, 4.0 mg/kg feed): 117%
- Ethyl β-apo-8′-carotenoate Equivalents ([1]; trial H-19/98, 4.0 mg/kg feed): 11.1 mg/kg
- Ethyl β-apo-8′-carotenoate Equivalents % of Controls ([1]; trial H-19/98, 4.0 mg/kg feed): 95%
- Deposition Rate % of Controls ([1]; trial H-19/98, 4.0 mg/kg feed): 117%
- Deposition Rate Value ([1]; trial H-19/98, 4.0 mg/kg feed): 54
- Deposition Rate % of Controls ([1]; trial H-25/98, 5.0 mg/kg feed): 106%
- Deposition Rate Value ([1]; trial H-25/98, 5.0 mg/kg feed): 50
- Deposition Rate Target Values ([1]; trial H-25/99, 5.0 mg/kg feed): 50%
- Deposition Rate Target Values % of Controls ([1]; trial H-25/99, 5.0 mg/kg feed): 100%
- Ethyl β-apo-8′-carotenoate Equivalents ([1]; trial H-25/99, 5.0 mg/kg feed): 13.3 mg/kg
- Ethyl β-apo-8′-carotenoate Equivalents % of Controls ([1]; trial H-25/99, 5.0 mg/kg feed): 84%
- concentration in the egg yolk [1]: in the range of the control
